Values quoted from earlier work, collected in patent US4380639A, “Substituted 1,2,5-thiadiazole derivatives” (Bristol-Myers Company, priority 1981, dated 1983).

Columns and labels:
[1] = test system: H2 -receptor
[2] = test system: peptic ulcer disease; conditions: clinical evaluation, Gray et al., Lancet 1977
[3] = in vivo

Row | oral absorption [3] | Structure (SMILES) | H2 -antagonist potency/effectiveness relative to comparator [1] | therapeutic effectiveness in peptic ulcer disease [2]
1 | – | CNC(=NC#N)NCCSCc1[nH]cnc1C [Cimetidine] | as effective an H2 -antagonist as metiamide | effective therapeutic agent in the treatment of peptic ulcer disease
2 | oral absorption is poor | CNC(=S)NCCCCc1cnc[nH]1 [Burimamide] | – | –
3 | – | CNC(=S)NCCSCc1[nH]cnc1C [Metiamide] | more potent than burimamide | –
